pEC50: −log10 of the molar value. Values joined by “and” are separate entries in the source; they are usually repeats but may differ in a detail not shown here. Identical values can stand only once. Like-named read-outs stand apart in the source and are kept apart here.
Tests used:
in vitro [1] = assay type: cell-based, human; settings: human, top 20 μM
Experimental: (§1) For the toxicity screen, compounds were tested in 96-well plates using all the wells as no edge affect was observed. Compounds were diluted to 40 μM (2x concentration in 10% DMEM, 0.4% DMSO) before step-wise, 3-fold dilution in 10% DMEM to create 10-dose series (20 μM to 0.001 μM). Host cells were plated in black, μ-Clear 96-well plates (Greiner Bio-One). We compared several lineages including HepG2 (human hepatocellular carcinoma (ATCC-HB-8065)), THP-1 (human monocytic tumor line), SH-SY5Y (human neuroblastoma (ATCC CRL-2266)), A549 (human lung carcinoma (ATCC CRM-CCL-185)) and Caco-2 (human intestinal adenocarcinoma (ATCC HTB-37)) and HFF (primary human foreskin fibroblast) obtained from the laboratory of John Boothroyd at Stanford University. Cells were maintained in culture media according to the formulations recommended by ATCC. Cells were plated at a density (ranging from of 5 × 10^3 to 2 × 10^4 cells/well (100 μL vol)) resulting in sub-confluent monolayers to allow expansion during the 2 day growth assay. THP-1 cells were treated with 10 ng/ml phorbol 12-myristate 13-acetate (PMA) for 24 h to differentiate into macrophages before compound addition. For all other cells, compounds were added at 6 h post seeding to host cells containing plates (200 μL final volume, 0.2% DMSO) and incubated in culture medium at 37 °C supplemented with 5% CO2. At 44 h post compound addition (50 h total growth time), culture media was aspirated and replaced with Live Imaging solution (ThermoFisher) supplemented with 10 μg/mL Hoeschst 33342 (Sigma) for 20 min at 37 °C. […] Alternatively, plates fixed with 4% formaldehyde for 10 min and stained with 10 μg/mL Hoeschst 33342 (Sigma) for 20 min and imaged using a Cytation 3 multi-mode imager (DAPI, 10x objective, 4 images/well) and nuclei quantified using the Gen5 imager software (v3.08). Assays were repeated with two technical replicates within each of two independent biological replicates.
(§2) All statistical analyses were conducted using Prism 9 (GraphPad Software, Inc.). Dose–response inhibition curves for parasite and host cell toxicity screens (EC50 values) were generated using (Log(inhibitor) vs. normalized response—Variable slope) function. […] For multiple comparisons, two-way ANOVA analysis function using either Sidák’s multiple comparisons test or Dunnett’s multiple comparisons test was applied as indicated.

[2] = tested on: THP-1 (human monocytic tumor line); assay: in vitro; assay type: cell-based; settings: EC50 host cell/EC50 T. gondii
Experimental: as §1, §2

[3] = tested on: SH-SY5Y (human neuroblastoma); assay: in vitro; assay type: cell-based; settings: EC50 host cell/EC50 T. gondii
Experimental: as §1, §2

[4] = tested on: in vitro derived T. gondii ME49-FLuc bradyzoites; assay: Plaque assay of bradyzoites induced in vitro for 14 days; assay type: cell-based, Toxoplasma gondii; settings: Fig 5F, replicates
Experimental: To monitor the effects of compounds on more mature in vitro derived bradyzoites, ME49-Fluc tachyzoites were inoculated onto HFF monolayers grown in T25[2] flasks and bradyzoites were induced for 12 days in RPMI 1640 pH 8.2 at ambient CO2 and 37°C. Cultures were then treated with compounds at EC90 or 3XEC90 for another 2 days. At the end of 14 days, monolayers were scraped and passed through a 23 g needle to liberate cysts, followed by centrifugation (400 × g, 10 min, 4 °C). Pellets were resuspended with Pearce^TM streptavidin magnetic beads (Thermo Fisher) pre-coupled with biotinylated DBL (Vector laboratories) and incubated for 1 h at 4 °C. Beads were collected and washed twice using a magnetic stand, followed by treatment with 0.25 mg/ml trypsin for 10 min to liberate bradyzoites. Released bradyzoites were collected from the supernatant and counted using a hemocytometer. Bradyzoites were inoculated onto 6-well plates confluent with HFF monolayers and cultured for 14 days, followed by ethanol fixation and staining with 0.01% crystal violet. Plaques or foci of infection were imaged using an Axiovert 100 microscope equipped with an AxioCam color camera and analyzed by ImageJ.

[5] = tested on: blood-stage P. falciparum; settings: Fig 2A Tg_Pf_Cp EC50s; previously reported values, reference not visible in the shown part; cited from earlier work
in vitro [6] = assay type: cell-based; settings: human, Caco-2; for pEC50: nuclei count, 44 h, top 20 μM; for selectivity ratio: EC50 host cell/EC50 T. gondii, read-out: Caco-2 fold selectivity
Experimental: as §1, §2

[7] = tested on: T. gondii tachyzoites (type II ME49-FLuc); assay: Luciferase-based tachyzoite growth assay; assay type: cell-based, Toxoplasma gondii; design: EC50 log inhib vs normalized response: unit: µM
Experimental: All assays were carried out in a 96-well plate format containing confluent HFF monolayers to support parasite growth. To avoid edge effects, only the inner 60 wells of each plate were used. All compounds described were provided by the Broad Institute as 10 mM stocks in 100% DMSO and stored at −80 °C prior to use. Pyrimethamine (Sigma-Aldrich) was prepared as 5 mM stock in 100% DMSO and stored at −20 °C prior to use.
as §2

[8] = tested on: ex vivo T. gondii ME49-FLuc bradyzoites from tissue cysts of chronically infected mice; assay: Ex vivo bradyzoite treatment assay (plaque assay); assay type: cell-based, Toxoplasma gondii; settings: for growth of ex vivo bradyzoites at EC50: constant treatment, vs DMSO
Experimental: The brains from CBA/J mice chronically infected with the ME49-FLuc strain were harvested, homogenized, and tissue cysts isolated on Percoll gradients, as described previously[9],[27]. Following isolation, purified tissue cysts were treated with acid-pepsin solution ([…] sodium chloride (NaCl), 60 mM hydrochloric acid (HCl) and freshly made pepsin (0.1 mg/mL in 1xPBS) for 10 min at 37 °C. Following acid-pepsin treatment and addition of neutralization buffer (94 mM sodium carbonate (Na2CO3), liberated bradyzoites were equally distributed into 6-well plates with 5 mL culture media containing compounds or vehicle control (0.1–0.2% DMSO final concentration). Plates were incubated undisturbed for 12–14 days followed by fixation in 100% ethanol (ETOH) for 5 min at RT, rinsing with tap water, staining in 0.1% crystal violet solution for 10 min at RT, rinsing in water and air drying. Plaques were quantified on a Zeiss AxioObserver microscope equipped with a ×2.5 objective (Department of Molecular Microbiology Imaging Facility at the Washington University School of Medicine).

[9] = PMA differentiated, read-out: THP-1 EC50
[10] = nuclei count, 44 h, read-out: A549 EC50
[11] = nuclei count, 44 h, read-out: HFF EC50
[12] = nuclei count, 44 h, read-out: SH-SY5Y EC50
[13] = nuclei count, 44 h after compound addition, read-out: HEPG2 EC50
[14] = Fig 1A rank order, T. gondii growth
[15] = Toxoplasma gondii, ME49-FLuc, 10-point dose-response, two biological replicates, read-out: EC50, T. gondii tachyzoite growth
[16] = Toxoplasma gondii, Table 2, read-out: T. gondii EC50
[17] = Toxoplasma gondii, Table S1, ME49-FLuc tachyzoites, read-out: T. gondii EC50
[18] = Constant treatment, Fig 5H top 4, replicates
[19] = Washout, Fig 5H top 4, replicates
[20] = Toxoplasma gondii, Fig 2A Tg_Pf_Cp EC50s, read-out: EC50 T. gondii
[21] = Toxoplasma gondii, from 10-dose-response curve of Fig. 1, read-out: EC90, tachyzoite growth

| Structure (SMILES) | pEC50 (in vitro [1]; [9]) | pEC50 (in vitro [1]; [10]) | pEC50 (in vitro [1]; [11]) | pEC50 (in vitro [1]; [12]) | pEC50 (in vitro [1]; [13]) | THP-1 fold selectivity [2] [fold] | SH-SY5Y fold selectivity [3] [fold] | Plaque numbers ([4]; 3xEC90) | Plaque numbers ([4]; EC90) | pEC50 [5] | pEC50 (in vitro [6]) | EC50 log inhib vs normalized response [7, 14] | pEC50 [7, 15] | pEC50 [7, 16] | pEC50 [7, 17] | Ex vivo bradyzoite plaques, normalised to DMSO = 100 [8, 18] | Ex vivo bradyzoite plaques, normalised to DMSO = 100 [8, 19] | selectivity ratio (in vitro [6]) | pEC50 [7, 20] | EC90 [7, 21] [nM] | other results |
| --- | --- | --- | --- | --- | --- | --- | --- | --- | --- | --- | --- | --- | --- | --- | --- | --- | --- | --- | --- | --- | --- |
| CN(C[C@@H]1[C@H](c2ccc(C#Cc3ccccc3)cc2)[C@@H]2CN(C(=O)Nc3ccc(OC4CC4)cc3)CCCCN12)S(C)(=O)=O [BRD2987] | 6.59 | 5.66 | < 4.70 | 5.63 | < 4.70 | 13.4 | 123.9 | 0 and 5 | 0 | 8.70 | < 4.70 | 0.01849 | 7.73 | 7.72 | 7.74 | 0.5 and 0.7 and 3.9 | 6.522 and 15.2 and 18.2 | – | – | – | pEC50 ([7]; Toxoplasma gondii, Fig S2 source data, read-out: T. gondii (EC50, Fig S2 source data)): 7.73 |
| COc1ccc(NC(=O)N2CCCCN3[C@H](CO)[C@H](c4ccc(C#Cc5ccccc5)cc4)[C@@H]3C2)cc1 [BRD3444] | 5.59 | < 4.70 | < 4.70 | 5.57 | 4.95 | 88.9 | 91.9 | 0 | 5 and 0 | 7.92 | 5.11 | 0.02885 | 7.54 | 7.54 | 7.55 | 0.5 and 0.2 and 1.9 | 1.087 and 0.00000000 and 9.1 | 270 | 7.54 | – | – |
| COc1ccc(NC(=O)N2CCCCN3[C@H](CN(C)C)[C@H](c4ccc(C#Cc5ccccc5)cc4)[C@@H]3C2)cc1 [BRD7929] | 6.17 | 5.27 | 5.10 | 6.14 | 5.51 | – | – | 0 | 0 | 7.89 | 5.15 | – | 7.64 | 7.64 | 7.66 | 1.0 and 0.2 and 1.9 | 2.174 and 0.37 and 0.00000000 | – | – | 98 | EC50 log inhib vs normalized response [7]: 0.0226; 3XEC90 ([7]; Fig 6A source data): 293.00; pEC50 ([7]; ME49-FLuc, 10-point dose-response, two biological replicates, listed as BR7929, read-out: EC50, T. gondii tachyzoite growth): 7.65; pEC50 ([7]; Toxoplasma gondii, Fig 6A source data, in vitro tachyzoites, read-out: EC50): 7.64; EC90 ([7]; Toxoplasma gondii, Fig 6A source data, in vitro tachyzoites, read-out: EC90): 98 nM; 3xEC90, tachyzoite growth ([7]; three times EC90): 0.293 µM; growth inhibition of ex vivo bradyzoites ([8]; 3×EC90, constant treatment): 99%; effect after washout ([8]; 3×EC90, short-term (4 h) treatment then washout): sustained following washout; growth of ex vivo bradyzoites at EC50 ([8]; EC50 concentration): only partially reduced growth; growth inhibition of ex vivo bradyzoites ([8]; EC90, constant treatment): 93%; Ex vivo bradyzoite plaques, normalised to DMSO = 100 ([8]; Washout, EC50 concentration, Fig 5I): 66.67 and 75.15 and 100; Ex vivo bradyzoite plaques, normalised to DMSO = 100 ([8]; Washout, EC90 concentration, Fig 5I): 83.91 |
| COc1ccc(NC(=O)N2CCCCN3[C@H](CN(C)S(C)(=O)=O)[C@H](c4ccc(C#Cc5ccccc5)cc4)[C@@H]3C2)cc1 [BRD8494] | 6.34 | < 4.70 | < 4.70 | 5.75 | < 4.70 | 13.2 | 51.0 | 0 | 0 | 7.59 | < 4.70 | 0.03476 | 7.46 | 7.46 | 7.47 | 0.5 and 0.2 and 1.9 | 1.087 and 0.74 and 4.5 | 571 | 7.46 | 95 | Ex vivo bradyzoite plaques, normalised to DMSO = 100 ([8]; Constant, EC50 concentration, Fig 5J): 100 and 95.62 and 97.45; growth of ex vivo bradyzoites at EC50 ([8]; EC50 concentration): did not inhibit the growth; growth of ex vivo bradyzoites at higher concentrations ([8]; EC90 and 3×EC90, constant treatment): nearly eliminated growth; Ex vivo bradyzoite plaques, normalised to DMSO = 100 ([8]; Washout, 3xEC90 concentration, Fig 5J): 97.62 and 100; Ex vivo bradyzoite plaques, normalised to DMSO = 100 ([8]; Washout, EC50 concentration, Fig 5J): 100 and 96.6 and 91.18; Ex vivo bradyzoite plaques, normalised to DMSO = 100 ([8]; Washout, EC90 concentration, Fig 5J): 100 |

Reference: paper PMC8786932, “Bicyclic azetidines target acute and chronic stages of Toxoplasma gondii by inhibiting parasite phenylalanyl t-RNA synthetase” (Nature Communications, 2022)
